Test results as given in patent US20260035367A1 (Celgene Corporation, priority 2021, published 2026).
Where two headings read alike, the source gives them in different places.

Experiments:
[1] = molecular target: T1, Recombinant human PKC-theta (His-tagged 362-706) (Homo sapiens, UniProt Q04759); experiment: PKC-theta inhibition assay (HTRF KinEASE kit); format: biochemical; details: ATP 6.5 μM, STK substrate 525 nM
T1 construct: Recombinant human PKC-theta (His-tagged 362-706); His
In short: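 IC50 values were from 4-parameter logistic fits of percent inhibition, based on acceptor/donor HTRF ratios over 10 semi-log compound doses. Kinase reactions, started with substrate plus ATP, ran 30 min at 25 °C in buffer supplemented with 10 mM MgCl2, 1 mM DTT and 0.1% Tween 20; detection lasted 2 h.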

[2] = molecular target: T2, Recombinant human PKC-delta (His-tagged 345-676) (Homo sapiens, UniProt Q05655); experiment: PKC-delta inhibition assay (HTRF KinEASE kit); format: biochemical; details: ratio, PKC-theta vs PKC-delta HTRF; for PKC-theta/PKC-delta selectivity (binned): binned A to G
T2 construct: PKC-delta (His-tagged 345-676); His
T2 sequence (Q05655 345-676): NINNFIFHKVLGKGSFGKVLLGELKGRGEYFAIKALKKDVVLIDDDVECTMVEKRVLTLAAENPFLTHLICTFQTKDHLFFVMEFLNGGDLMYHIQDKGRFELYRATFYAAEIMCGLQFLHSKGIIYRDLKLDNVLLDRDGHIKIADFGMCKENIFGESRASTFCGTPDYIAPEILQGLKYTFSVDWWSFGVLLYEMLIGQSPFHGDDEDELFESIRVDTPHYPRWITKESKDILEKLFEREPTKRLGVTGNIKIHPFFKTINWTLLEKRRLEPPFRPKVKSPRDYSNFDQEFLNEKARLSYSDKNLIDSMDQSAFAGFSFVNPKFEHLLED

[3] = test system: IL-2 secretion by human effector memory T cells (TEM); experiment: Effector memory T cells IL-2 release assay (CD3/CD28 stimulation, HTRF IL-2 detection); format: cell-based; details: Homo sapiens, T-cell, 24 h
In short: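 Human effector memory T cells from healthy-donor buffy coats were exposed in triplicate to ten semi-log doses of compound in 0.1% DMSO. The cells were stimulated and incubated 24 h at 37 °C. Secreted IL-2 in the supernatant was measured by HTRF.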

[4] = binned A to H, read-out: PKC-theta HTRF pIC50 (binned) (converted)
[5] = read-out: PKC-theta HTRF pIC50 (converted)
[6] = binned A to G, read-out: PKC-theta IL2 pIC50 (binned) (converted)
[7] = read-out: PKC-theta IL2 pIC50 (converted)

T1 sequence (Q04759 362-706): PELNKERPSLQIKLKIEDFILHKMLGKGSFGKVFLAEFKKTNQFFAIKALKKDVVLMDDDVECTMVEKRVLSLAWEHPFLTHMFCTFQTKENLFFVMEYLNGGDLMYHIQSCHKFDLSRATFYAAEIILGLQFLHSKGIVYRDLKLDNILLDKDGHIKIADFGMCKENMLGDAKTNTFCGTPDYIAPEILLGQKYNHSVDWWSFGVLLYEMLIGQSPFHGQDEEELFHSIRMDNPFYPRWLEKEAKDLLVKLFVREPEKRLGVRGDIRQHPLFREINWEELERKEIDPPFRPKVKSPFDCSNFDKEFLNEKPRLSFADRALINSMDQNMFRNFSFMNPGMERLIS

Compound | IC50 [1, 4] | IC50 [1, 5] | PKC-theta/PKC-delta selectivity [2] | PKC-theta/PKC-delta selectivity (binned) [2] | IC50 [3, 6] | IC50 [3, 7]
O=C1Nc2nccc(-c3cc(F)cc(N4CCNCC4)c3)c2C12CCC2 [Example 35] | 31.6 to 100 nM | 39.8 nM | 3 | F (a ratio of between 1 and 5) | 316 to 1000 nM | 398 nM
C[C@@H]1CCN(c2cc(C(F)(F)F)cc(-c3ccnc4c3C(C)(C)C(=O)N4)n2)CCN1 [Example 184] | 10 to 31.6 nM | 10 nM | 20 | C (a ratio of between 20 and 30) | 100 to 316 nM | 251 nM
CC1(C)C(=O)Nc2nccc(-c3cccc(N4CCNC(Cc5cccnc5)C4)c3)c21 (stereo not drawn) [Example 67] | 31.6 to 100 nM | 50.1 nM | 3 | F (a ratio of between 1 and 5) | > 1000 nM | 1000 nM
CN(C)Cc1cccc(-c2ccnc3[nH]c(=O)[nH]c23)c1 [Example 3] | 316 to 1000 nM | 794 nM | 1 | F (a ratio of between 1 and 5) | > 1000 nM | 5010 nM
C[C@H](O)[C@@H]1CN(c2cc(C(F)(F)F)cc(-c3ccnc4c3C(C)(C)C(=O)N4)n2)CCN1 [Example 121] | 10 to 31.6 nM | 25.1 nM | 12 | D (a ratio of between 10 and 20) | 316 to 1000 nM | 631 nM
CC[C@]1(O)C(=O)Nc2nccc(-c3cc(C(F)(F)F)cc(N4CCNC[C@H]4C)n3)c21 (single isomer, unassigned) [Example 167] | 100 to 316 nM | 316 nM | 33 | B (a ratio of between 30 and 50) | > 1000 nM | 2510 nM
C[C@H]1CNCCN1c1cc(C(F)(F)F)cc(-c2ccnc3c2C(C)(C)C(=O)N3)n1 [Example 101] | 3.16 to 10 nM | 6.31 nM | 12 | D (a ratio of between 10 and 20) | 31.6 to 100 nM | 100 nM
CC[C@@]1(C)C(=O)Nc2nccc(-c3cc(C(C)(F)F)cc(N4CCCNCC4)n3)c21 (single isomer, unassigned) [Example 206] | 31.6 to 100 nM | 31.6 nM | 23 | C (a ratio of between 20 and 30) | 316 to 1000 nM | 631 nM
CC1(C)C(=O)Nc2nccc(-c3cc(F)cc(N4CCNCC4)c3)c21 [Example 29] | 31.6 to 100 nM | 31.6 nM | 1 | F (a ratio of between 1 and 5) | 316 to 1000 nM | 501 nM
C[C@@H]1CNCCN1c1cc(F)cc(-c2ccnc3c2C(C)(O)C(=O)N3)c1 (stereo partly drawn) [Example 59] | 3.16 to 10 nM | 5.01 nM | 5 | F (a ratio of between 1 and 5) | 100 to 316 nM | 126 nM
CC1(O)C(=O)Nc2nccc(-c3cc(F)cc(N4CCNCC4)c3)c21 (stereo not drawn) [Example 46] | 10 to 31.6 nM | 12.6 nM | 3 | F (a ratio of between 1 and 5) | 100 to 316 nM | 251 nM
CC1(C)C(=O)Nc2nccc(-c3cc(Cl)cc(N4CCNCC4)n3)c21 [Example 65] | 1 to 3.16 nM | 2 nM | 14 | D (a ratio of between 10 and 20) | 100 to 316 nM | 200 nM
C[C@@H]1CN(c2cccc(-c3ccnc4c3C(C)(C)C(=O)N4)c2)CCN1 [Example 54] | 31.6 to 100 nM | 100 nM | 3 | F (a ratio of between 1 and 5) | > 1000 nM | 2000 nM
CC[C@H]1CN(c2ccc(Cl)c(-c3ccnc4c3C(O)(CC)C(=O)N4)n2)CCN1 (stereo partly drawn) [Example 132] | 100 to 316 nM | 100 nM | 4 | F (a ratio of between 1 and 5) | 316 to 1000 nM | 1000 nM
CC1(C)C(=O)Nc2nccc(-c3cc(C#N)cc(N4CCNCC4)c3)c21 [Example 53] | 100 to 316 nM | 251 nM | 3 | F (a ratio of between 1 and 5) | > 1000 nM | 1580 nM
CCC1(O)C(=O)Nc2nccc(-c3cc(C(F)(F)F)cc(N4CCN[C@@H](C)C4)n3)c21 (stereo partly drawn) [Example 111] | 3.16 to 10 nM | 5.01 nM | 17 | D (a ratio of between 10 and 20) | 100 to 316 nM | 126 nM
C[C@@H]1CNCCN1c1cc(C(F)(F)F)cc(-c2ccnc3c2[C@](C)(O)C(=O)N3)n1 (single isomer, unassigned) [Example 94] | 1 to 3.16 nM | 2 nM | 9 | E (a ratio of between 5 and 10) | 10 to 31.6 nM | 20 nM
C[C@@H]1CN(c2cc(C(F)(F)F)cc(-c3ccnc4c3C(C)(C)C(=O)N4)n2)[C@H](C)CN1 [Example 178] | 1 to 3.16 nM | 3.16 nM | 20 | D (a ratio of between 10 and 20) | 31.6 to 100 nM | 63.1 nM
CC1(Cc2ccccc2)C(=O)Nc2nccc(-c3cccc(N4CCNCC4)c3)c21 (stereo not drawn) [Example 49] | 316 to 1000 nM | 1000 nM | 1 | F (a ratio of between 1 and 5) | > 1000 nM | 3980 nM
C[C@@H]1CN(c2cc(C(C)(F)F)cc(-c3ccnc4c3C(C)(C)C(=O)N4)n2)CCCN1 [Example 204] | 3.16 to 10 nM | 6.31 nM | 24 | C (a ratio of between 20 and 30) | 100 to 316 nM | 126 nM
CC[C@H]1CN(c2cc(Cl)cc(-c3ccnc4c3C(C)(C)C(=O)N4)n2)CCN1 [Example 145] | 0.316 to 1 nM | 0.794 nM | 25 | C (a ratio of between 20 and 30) | 10 to 31.6 nM | 15.8 nM
CC1(C)C(=O)Nc2ncc(Cl)c(-c3cc(F)cc(N4CCNCC4)c3)c21 [Example 79] | 31.6 to 100 nM | 39.8 nM | 2 | F (a ratio of between 1 and 5) | 316 to 1000 nM | 794 nM
C[C@H]1CCNCCN1c1cc(C(F)(F)F)cc(-c2ccnc3c2C(C)(C)C(=O)N3)n1 [Example 187] | 3.16 to 10 nM | 5.01 nM | 28 | C (a ratio of between 20 and 30) | 31.6 to 100 nM | 100 nM
CC[C@]1(C)C(=O)Nc2nccc(-c3cc(C(F)(F)F)cc(N4CCN[C@@H](C)C4)n3)c21 (single isomer, unassigned) [Example 153] | 1 to 3.16 nM | 3.16 nM | 13 | D (a ratio of between 10 and 20) | 10 to 31.6 nM | 31.6 nM
C[C@@H]1CNCCN1c1cc(Cl)cc(-c2ccnc3c2C(C)(C)C(=O)N3)n1 [Example 140] | 1 to 3.16 nM | 1.58 nM | 6 | E (a ratio of between 5 and 10) | 10 to 31.6 nM | 12.6 nM
CC1(C)C(=O)Nc2nccc(-c3cc(OC(F)F)cc(N4CCNCC4)n3)c21 [Example 86] | 31.6 to 100 nM | 31.6 nM | 10 | E (a ratio of between 5 and 10) | 316 to 1000 nM | 501 nM
CC[C@H]1CN(c2cc(C(F)(F)F)cc(-c3ccnc4c3[C@](C)(O)C(=O)N4)n2)CCN1 (single isomer, unassigned) [Example 90] | 0.316 to 1 nM | 0.794 nM | 17 | D (a ratio of between 10 and 20) | 10 to 31.6 nM | 15.8 nM
CC1(C)C(=O)Nc2nccc(-c3cc(Cl)cc(N4CCNCC4C(F)F)n3)c21 (stereo not drawn) [Example 159] | 1 to 3.16 nM | 2 nM | 9 | E (a ratio of between 5 and 10) | 100 to 316 nM | 100 nM
C[C@H]1CN(c2cc(C(F)(F)F)cc(-c3ccnc4c3C(C)(C)C(=O)N4)n2)CCCN1 [Example 185] | 3.16 to 10 nM | 5.01 nM | 27 | C (a ratio of between 20 and 30) | 31.6 to 100 nM | 39.8 nM
